{"source": "ChEMBL document CHEMBL1777704", "about": "“Identification and synthesis of N'-(2-oxoindolin-3-ylidene)hydrazide derivatives against c-Met kinase” (Bioorg Med Chem Lett, 2011)", "biological_target": "Hepatocyte growth factor receptor (Homo sapiens, UniProt P08581)", "sequence (P08581 whole entry)": "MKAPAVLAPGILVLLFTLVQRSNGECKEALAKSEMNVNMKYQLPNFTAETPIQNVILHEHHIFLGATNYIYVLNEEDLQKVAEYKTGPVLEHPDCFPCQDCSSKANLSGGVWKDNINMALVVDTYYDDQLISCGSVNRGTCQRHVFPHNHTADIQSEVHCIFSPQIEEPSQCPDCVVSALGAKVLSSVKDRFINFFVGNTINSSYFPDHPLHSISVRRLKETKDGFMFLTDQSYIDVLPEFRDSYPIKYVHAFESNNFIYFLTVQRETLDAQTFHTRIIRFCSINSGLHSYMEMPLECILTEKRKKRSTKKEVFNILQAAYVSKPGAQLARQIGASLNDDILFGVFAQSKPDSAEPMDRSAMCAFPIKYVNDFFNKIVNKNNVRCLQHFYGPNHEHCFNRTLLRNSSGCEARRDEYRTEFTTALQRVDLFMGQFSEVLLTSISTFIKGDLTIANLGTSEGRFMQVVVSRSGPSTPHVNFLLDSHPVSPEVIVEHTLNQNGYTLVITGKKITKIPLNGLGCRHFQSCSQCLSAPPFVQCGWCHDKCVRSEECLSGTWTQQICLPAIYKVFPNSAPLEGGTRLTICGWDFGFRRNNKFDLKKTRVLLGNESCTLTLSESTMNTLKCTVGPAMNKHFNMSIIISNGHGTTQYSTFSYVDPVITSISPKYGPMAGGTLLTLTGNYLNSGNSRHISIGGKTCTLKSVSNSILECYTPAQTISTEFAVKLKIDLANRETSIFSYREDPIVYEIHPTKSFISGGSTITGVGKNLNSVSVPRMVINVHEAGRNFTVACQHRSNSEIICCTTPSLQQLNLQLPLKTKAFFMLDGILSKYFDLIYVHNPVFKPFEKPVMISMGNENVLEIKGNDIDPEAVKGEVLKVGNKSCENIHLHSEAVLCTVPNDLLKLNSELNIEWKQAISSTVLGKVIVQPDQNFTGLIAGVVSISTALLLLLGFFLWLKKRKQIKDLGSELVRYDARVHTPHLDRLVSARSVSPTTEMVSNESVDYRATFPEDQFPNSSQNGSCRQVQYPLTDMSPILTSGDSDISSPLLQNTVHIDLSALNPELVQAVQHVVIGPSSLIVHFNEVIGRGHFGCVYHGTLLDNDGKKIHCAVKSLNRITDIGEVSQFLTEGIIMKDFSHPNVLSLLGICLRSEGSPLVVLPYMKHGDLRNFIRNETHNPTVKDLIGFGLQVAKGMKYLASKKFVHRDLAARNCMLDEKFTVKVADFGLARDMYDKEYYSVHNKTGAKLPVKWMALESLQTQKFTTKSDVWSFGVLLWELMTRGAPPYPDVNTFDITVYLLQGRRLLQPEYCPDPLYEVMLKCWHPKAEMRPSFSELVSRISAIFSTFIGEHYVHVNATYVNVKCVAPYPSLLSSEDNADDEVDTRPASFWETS", "assay": "Inhibition of purified c-Met using poly(glu,tyr) as substrate after 60 mins by ELISA", "data": [{"molecule": "CN1C(=O)/C(=N\\NC(=O)c2cccc(C(=O)N/N=C3/C(=O)N(C)c4ccccc43)c2)c2ccccc21", "values": [{"measurement": "IC50", "result": 10.3, "unit": "µM"}]}, {"molecule": "Cc1cccc(C(=O)Nc2ccc(C(=O)N/N=C3\\C(=O)Nc4ccccc43)cc2)c1", "values": [{"measurement": "IC50", "result": 1.3, "unit": "µM"}]}, {"molecule": "COc1ccc(C(=O)COC(=O)c2ccc3c(c2)C(=O)N(c2ccc(C(C)=O)cc2)C3=O)cc1", "values": [{"measurement": "IC50", "result": 3.7, "unit": "µM"}]}, {"molecule": "O=[N+]([O-])c1cc(-c2ccc(/C=N\\n3cnnc3N/N=C/c3ccc(-c4ccc(Cl)c([N+](=O)[O-])c4)o3)o2)ccc1Cl", "values": [{"measurement": "IC50", "result": 3.3, "unit": "µM"}]}, {"molecule": "O=C(CCCCCC(=O)N/N=C/c1cc2c(cc1[N+](=O)[O-])OCO2)N/N=C/c1cc2c(cc1[N+](=O)[O-])OCO2", "values": [{"measurement": "IC50", "result": 0.78, "unit": "µM"}]}, {"molecule": "O=C1Nc2ccccc2C1=NNC(=O)c1ccc([N+](=O)[O-])cc1", "values": [{"measurement": "IC50", "result": 28.3, "unit": "µM"}]}, {"molecule": "O=C1Nc2ccccc2/C1=N/NC(=O)c1cc2ccccc2cc1O", "values": [{"measurement": "IC50", "result": 4.3, "unit": "µM"}]}, {"molecule": "CN1C(=O)/C(=N\\NC(=O)c2ccc([N+](=O)[O-])cc2)c2ccccc21", "values": [{"measurement": "IC50", "result": 12.3, "unit": "µM"}]}, {"molecule": "Cc1ccc(NC(=O)CN2C(=O)/C(=N\\NC(=O)c3ccc(N)cc3)c3ccccc32)cc1", "values": [{"measurement": "IC50", "result": 15.8, "unit": "µM"}]}, {"molecule": "O=C(N/N=C1\\C(=O)N(CN2CCOCC2)c2ccc(Br)cc21)c1ccccc1", "values": [{"measurement": "IC50", "result": 3.5, "unit": "µM"}]}, {"molecule": "COc1ccc(C(=O)N/N=C2\\C(=O)N(CN3CCOCC3)c3ccc(Br)cc32)cc1", "values": [{"measurement": "IC50", "result": 2.2, "unit": "µM"}]}]}
